Experiment: Maximum degradation in the infusion estimated for selected infusion schedules
Type: physicochemical
Conditions: 0.1-1 mg/mL; for Average degradation rate: estimate assuming linearity
Protocol: Table 3 summarizes the maximum degradation estimated using a series of infusion schedules (S1 through S7 as denoted in the table) selected to establish degradation limits and acceptable shelf life of the diluted solution. The average degradation rate used for calculations is based on the assumption that degradation in solutions is linear and the slope between the initial and the terminal time point is considered to be worst case. If the solution is prepared appropriately and used immediately, degradation would be minimal. It is recommended that a diluted infusion should not be stored longer than seven hours in a refrigerator for a three hour infusion or longer than 10 hours in a refrigerator for a two hour infusion in order to stay within the 10% maximum limit allowed for degradation.

## Nc1ncn([C@H]2C[C@H](O)[C@@H](CO)O2)c(=O)n1 [Decitabine, 4-amino-1-(2-deoxy-β-D-erythro-pentofuranosyl)-1,3,5-triazin-2(1H)-one]
@ 4° C.
  Average degradation rate: 0.40 %/hr
@ Room Temperature
  Average degradation rate: 2.44 %/hr
S1 (6 hr stored @4° C. + 3 hr @ RT during infusion)
  Maximum degradation: 9.72 % peak area
S2 (7 hr stored @4° C. + 3 hr @ RT during infusion)
  Maximum degradation: 10.12 % peak area
S3 (7 hr stored @4° C. + 2 hr @ RT during infusion)
  Maximum degradation: 7.68 % peak area
S4 (8 hr stored @4° C. + 3 hr @ RT during infusion)
  Maximum degradation: 10.52 % peak area
S5 (8 hr stored @4° C. + 2 hr @ RT during infusion)
  Maximum degradation: 8.08 % peak area
S6 (9 hr stored @4° C. + 2 hr @ RT during infusion)
  Maximum degradation: 8.48 % peak area
S7 (10 hr stored @4° C. + 2 hr @ RT during infusion)
  Maximum degradation: 8.88 % peak area

Reference: patent publication US20070117776A1, “Low Dose Therapy Of DNA Methylation Inhibitors” (priority 2005, published 2007)
